From patent US9975854B2, “Benzomorphan analogs and use thereof” (Purdue Pharma L.P., priority 2014, dated 2018)
Read-outs that look alike come from different tables or passages of the source.

Molecular target: μ-opioid receptor (Homo sapiens (Human), UniProt P35372)
Test: μ-opioid receptor [35S]GTPγS functional assay, HEK-293 or CHO cells
Assay type: biochemical
Details: for Emax: relative to DAMGO
Procedure: [^35S]GTPγS functional assays were conducted using freshly thawed μ-receptor membranes prepared in-house from a cell line expressing recombinant opioid receptor in a HEK-293, CHO or U-2 OS cell background, or purchased from a commercial source (Perkin Elmer, Shelton, Conn.; or DiscovRx, Fremont, Calif.). Assay reactions were prepared by sequentially adding the following reagents to binding buffer (100 mM NaCl, 10 mM MgCl2, 20 mM HEPES, pH 7.4) on ice (final concentrations indicated): membrane protein (0.026 mg/mL), saponin ([…]), GDP ([…]) and [^35S]GTPγS (0.20 nM; Perkin Elmer, Shelton, Conn.). The prepared membrane solution (190 μl/well) was transferred to 96-shallow well polypropylene plates containing 10 μl of 20× concentrated stock solutions of the agonist [D-Ala^2, N-methyl-Phe^4 Gly-ol^5]-enkephalin (DAMGO) prepared in dimethyl sulfoxide (DMSO). Plates were incubated for 30 min at about 25° C. with shaking. Reactions were terminated by rapid filtration onto 96-well Unifilter GF/B filter plates (Perkin Elmer, Shelton, Conn.) using a 96-well tissue harvester (Perkin Elmer, Shelton, Conn.) followed by three filtration washes with 200 μl of ice-cold wash buffer (10 mM NaH2PO4, 10 mM Na2HPO4, pH 7.4). Filter plates were subsequently dried at 50° C. for 2-3 hr. BetaScint scintillation cocktail (Perkin Elmer, Shelton, Conn.) was added (50 μl/well) and plates were counted using a Packard Top-Count for 1 min/well. Data were analyzed using the sigmoidal dose-response curve fitting functions in GraphPad PRISM v. 3.0, or an in-house function for non-linear, sigmoidal dose-response curve-fitting.
μ GTP EC50 is the concentration of a compound providing 50% of the maximal response for the compound at a μ-opioid receptor.
μ GTP Emax (%) is the maximal effect elicited by a compound relative to the effect elicited by DAMGO, a standard p agonist. Generally, the μ GTP Emax (%) value measures the efficacy of a compound to treat or prevent pain or other Conditions.
In TABLE 4, activity response of certain Compounds of the Invention to the μ- and κ-opioid receptors was determined as described above for functional assays using HEK-293 or CHO cells.

[1] = HEK-293 or CHO cells, read-out: GTPγS μ EC50
[2] = HEK-293 or CHO cells, bound given in uM, read-out: GTPγS μ EC50

`CN1CC[C@@]2(C)c3cc(O)ccc3C[C@@H]1[C@@H]2N(C)C(=O)Cc1ccc(S(C)(=O)=O)cc1` [Compound 28, N-((2R,6S,11R)-8-hydroxy-3,6-dimethyl-1,2,3,4,5,6-hexahydro-2,6-methanobenzo[d]azocin-11-yl)-N-methyl-2-(4-(methylsulfonyl)phenyl)acetamide] was tested, and the EC50 [1] was 0.182 ± 0.012 µM and the Emax (HEK-293 or CHO cells) was 84.7 ± 1.2%.

`COc1ccc2c(c1)[C@]1(C)CCN(C)[C@H](C2)[C@@H]1N(C)C(=O)Nc1nc2ccccc2[nH]1` [Compound 111, 3-(1H-benzo[d]imidazol-2-yl)-1-((2R,6S,11R)-8-methoxy-3,6-dimethyl-1,2,3,4,5,6-hexahydro-2,6-methanobenzo[d]azocin-11-yl)-1-methylurea] gave an EC50 [1] of 0.79 ± 0.0985 µM and an Emax (HEK-293 or CHO cells) of 67.4 ± 3.48%.

For `CN1CC[C@@]2(C)c3cc(C(=O)O)ccc3C[C@@H]1C2(O)O` [Compound 117, (2R,6S)-11,11-dihydroxy-3,6-dimethyl-1,2,3,4,5,6-hexahydro-2,6-methanobenzo[d]azocine-8-carboxylic acid], the EC50 [2] was > 20 µM and the Emax (HEK-293 or CHO cells) was 0%.

`CCCN(C(=O)Nc1ccc(C#N)cc1)[C@H]1[C@H]2Cc3ccc(O)cc3[C@]1(C)CCN2C` [Compound 92, 3-(4-cyanophenyl)-1-((2R,6S,11R)-8-hydroxy-3,6-dimethyl-1,2,3,4,5,6-hexahydro-2,6-methanobenzo[d]azocin-11-yl)-1-propylurea] gave an EC50 [1] of 0.0964 ± 0.00352 µM and an Emax (HEK-293 or CHO cells) of 43.8 ± 1.03%.

For `CN1CC[C@@]2(C)c3cc(O)ccc3C[C@@H]1[C@@H]2N(C)CC1CCN(S(C)(=O)=O)CC1` [Compound 54, (2R,6S,11R)-3,6-dimethyl-11-(methyl((1-(methylsulfonyl)piperidin-4-yl)methyl)amino)-1,2,3,4,5,6-hexahydro-2,6-methanobenzo[d]azocin-8-ol], the EC50 [1] was 0.00544 ± 0.00235 µM and the Emax (HEK-293 or CHO cells) was 74 ± 3.15%.

With `CN1CCC2(C)c3cc(O)ccc3C[C@@H]1C2NC(=O)/C=C/c1ccoc1` (stereo in doubt) [Compound 32, (E)-3-(furan-3-yl)-N-((2R,6S,11S)-8-hydroxy-3,6-dimethyl-1,2,3,4,5,6-hexahydro-2,6-methanobenzo[d]azocin-11-yl)acrylamide] the EC50 [2] was > 20 µM and the Emax (HEK-293 or CHO cells) was 2.33 ± 0.88%.

`CN1CC[C@@]2(C)c3cc(C(N)=O)ccc3C[C@@H]1[C@@H]2NCCc1ccccc1` [Compound 114, (2R,6S,11R)-3,6-dimethyl-11-(phenethylamino)-1,2,3,4,5,6-hexahydro-2,6-methanobenzo[d]azocine-8-carboxamide] showed an EC50 [1] of 8.62 ± 0.751 µM and an Emax (HEK-293 or CHO cells) of 71 ± 2.18%.

For `CN1CC[C@@]2(C)c3cc(C(N)=O)ccc3C[C@@H]1[C@H]2N(C)C(=O)Nc1ccc(C#N)cc1` [Compound 120, (2R,6S,11S)-11-(3-(4-cyanophenyl)-1-methylureido)-3,6-dimethyl-1,2,3,4,5,6-hexahydro-2,6-methanobenzo[d]azocine-8-carboxamide], the EC50 [2] was > 20 µM and the Emax (HEK-293 or CHO cells) was -0.33 ± 0.67%.

With `CN1CC[C@@]2(C)c3cc(C#N)ccc3C[C@@H]1C2(O)O` [Compound 116, (2R,6S)-11,11-dihydroxy-3,6-dimethyl-1,2,3,4,5,6-hexahydro-2,6-methanobenzo[d]azocine-8-carbonitrile] the EC50 was > 20 µM and the Emax (HEK-293 or CHO cells) was 0%.

Molecule `CN1CC[C@@]2(C)c3cc(O)ccc3C[C@@H]1[C@@H]2N(CCc1ccc(F)cc1)CC(=O)O` [Compound 73, N-(4-fluorophenethyl)-N-((2R,6S,11R)-8-hydroxy-3,6-dimethyl-1,2,3,4,5,6-hexahydro-2,6-methanobenzo[d]azocin-11-yl)glycine] has an EC50 [1] of 0.0572 ± 0.0127 µM and an Emax (HEK-293 or CHO cells) of 68.8 ± 1.77%.

Work on `CN1CC[C@@]2(C)c3cc(O)ccc3C[C@@H]1[C@@H]2N(C)CC1CCN(S(=O)(=O)C2CC2)CC1` [Compound 57, (2R,6S,11R)-11-(((1-(cyclopropylsulfonyl)piperidin-4-yl)methyl)(methyl)amino)-3,6-dimethyl-1,2,3,4,5,6-hexahydro-2,6-methanobenzo[d]azocin-8-ol] yielded an EC50 [1] of 0.0905 ± 0.0181 µM and an Emax (HEK-293 or CHO cells) of 43 ± 1.53%.

For `CN1CC[C@@]2(C)c3cc(O)ccc3C[C@@H]1[C@H]2NCCCCNC(=O)OC(C)(C)C` [Compound 19, Tert-butyl (4-(((2R,6S,11S)-8-hydroxy-3,6-dimethyl-1,2,3,4,5,6-hexahydro-2,6-methanobenzo[d]azocin-11-yl)amino)butyl)carbamate], the EC50 [2] was > 20 µM and the Emax (HEK-293 or CHO cells) was 0%.

Molecule `CN1CC[C@@]2(C)c3cc(O)ccc3C[C@@H]1[C@@H]2NCCCCNC(=O)OC(C)(C)C` [Compound 18, Tert-butyl (4-(((2R,6S,11R)-8-hydroxy-3,6-dimethyl-1,2,3,4,5,6-hexahydro-2,6-methanobenzo[d]azocin-11-yl)amino)butyl)carbamate] has an EC50 [1] of 0.124 ± 0.0183 µM and an Emax (HEK-293 or CHO cells) of 48.4 ± 3.28%.

Molecule `CN1CC[C@@]2(C)c3cc(C(N)=O)ccc3C[C@@H]1[C@H]2NCCc1ccccc1` [Compound 115, (2R,6S,11S)-3,6-dimethyl-11-(phenethylamino)-1,2,3,4,5,6-hexahydro-2,6-methanobenzo[d]azocine-8-carboxamide] has an EC50 [1] of 0.525 ± 0.0263 µM and an Emax (HEK-293 or CHO cells) of 83.4 ± 1.58%.

`CN1CC[C@@]2(C)c3cc(O)ccc3C[C@@H]1[C@@H]2N(C)C(=O)Nc1nc2ccccc2o1` [Compound 121, 3-(Benzo[d]oxazol-2-yl)-1-((2R,6S,11R)-8-hydroxy-3,6-dimethyl-1,2,3,4,5,6-hexahydro-2,6-methanobenzo[d]azocin-11-yl)-1-methylurea] showed an EC50 [1] of 0.0824 ± 0.0104 µM and an Emax (HEK-293 or CHO cells) of 60.1 ± 4.74%.

`CN1CC[C@@]2(C)c3cc(O)ccc3C[C@@H]1[C@H]2NC(=O)Nc1nc2cc(F)ccc2s1` [Compound 122, 1-(5-Fluorobenzo[d]thiazol-2-yl)-3-((2R,6S,11S)-8-hydroxy-3,6-dimethyl-1,2,3,4,5,6-hexahydro-2,6-methanobenzo[d]azocin-11-yl)urea] showed an EC50 [1] of 0.375 ± 0.106 µM and an Emax (HEK-293 or CHO cells) of 13.6 ± 1.14%.

`CN(CC1CCN(S(=O)(=O)C2CCCC2)CC1)C1[C@H]2Cc3ccc(O)cc3C1(C)CCN2C` (stereo in doubt) [Compound 60, (2R,6S,11S)-11-(((1-(cyclopentylsulfonyl)piperidin-4-yl)methyl)(methyl)amino)-3,6-dimethyl-1,2,3,4,5,6-hexahydro-2,6-methanobenzo[d]azocin-8-ol] gave an EC50 [1] of 0.012 ± 0.00174 µM and an Emax (HEK-293 or CHO cells) of 22.3 ± 2.34%.

For `CN1CC[C@@]2(C)c3cc(O)ccc3C[C@@H]1[C@@H]2NC(=O)Nc1ccc(C#N)cc1` [Compound 27, 1-(4-Cyanophenyl)-3-((2R,6S,11R)-8-hydroxy-3,6-dimethyl-1,2,3,4,5,6-hexahydro-2,6-methanobenzo[d]azocin-11-yl)urea], the EC50 [2] was > 20 µM and the Emax (HEK-293 or CHO cells) was 0%.

In the case of `CN1CCC2(C)c3cc(O)ccc3C[C@@H]1C2NS(=O)(=O)c1ccccc1` (stereo in doubt) [Compound 102, N-((2R,6S,11S)-8-hydroxy-3,6-dimethyl-1,2,3,4,5,6-hexahydro-2,6-methanobenzo[d]azocin-11-yl)benzenesulfonamide], the EC50 [2] is reported as > 20 µM and the Emax (HEK-293 or CHO cells) is reported as -1%.

With `CN1CC[C@@]2(C)c3cc(C(N)=O)ccc3C[C@@H]1C2(O)O` [Compound 118, (2R,6S)-11,11-dihydroxy-3,6-dimethyl-1,2,3,4,5,6-hexahydro-2,6-methanobenzo[d]azocine-8-carboxamide] the EC50 was 17 ± 0.566 µM and the Emax (HEK-293 or CHO cells) was 6.56 ± 0.6%.

For `CN1CCC2(C)c3cc(O)ccc3C[C@@H]1C2NS(=O)(=O)Cc1ccccc1` (stereo in doubt) [Compound 101, N-((2R,6S,11S)-8-hydroxy-3,6-dimethyl-1,2,3,4,5,6-hexahydro-2,6-methanobenzo[d]azocin-11-yl)-1-phenylmethanesulfonamide], the EC50 [2] was > 20 µM and the Emax (HEK-293 or CHO cells) was 6 ± 4.06%.

`CN1CC[C@@]2(C)c3cc(O)ccc3C[C@@H]1[C@H]2N(C)C(=O)Nc1nc2cc(F)ccc2s1` [Compound 82, 3-(5-fluorobenzo[d]thiazol-2-yl)-1-((2R,6S,11S)-8-hydroxy-3,6-dimethyl-1,2,3,4,5,6-hexahydro-2,6-methanobenzo[d]azocin-11-yl)-1-methylurea] was tested, and the EC50 [2] was > 20 µM and the Emax (HEK-293 or CHO cells) was 1%.

`CN1CC[C@@]2(C)c3cc(O)ccc3C[C@@H]1[C@@H]2N(C)C(=O)Nc1nc2ccccc2[nH]1` [Compound 107, 3-(1H-benzo[d]imidazol-2-yl)-1-((2R,6S,11R)-8-hydroxy-3,6-dimethyl-1,2,3,4,5,6-hexahydro-2,6-methanobenzo[d]azocin-11-yl)-1-methylurea] showed an EC50 [1] of 0.00681 ± 0.00286 µM and an Emax (HEK-293 or CHO cells) of 30.6 ± 1.51%.

In the case of `CN1CC[C@@]2(C)c3cc(O)ccc3C[C@@H]1[C@@H]2N(C)CC1CCN(C(=O)NC(C)(C)C)CC1` [Compound 95, N-(tert-butyl)-4-((((2R,6S,11R)-8-hydroxy-3,6-dimethyl-1,2,3,4,5,6-hexahydro-2,6-methanobenzo[d]azocin-11-yl)(methyl)amino)methyl)piperidine-1-carboxamide], the EC50 [1] is reported as 0.008 ± 0.00164 µM and the Emax (HEK-293 or CHO cells) is reported as 17.7 ± 2.6%.
